Source: US20030165864A1, “Genes regulated by DNA methylation in tumor cells” (priority 2001, published 2003)

Legend:
[1] = tested on: HT29 colorectal carcinoma cells; assay: microarray differential expression in 5-aza-2-deoxycytidine-treated versus untreated HT29 cells; format: cell-based, human; conditions: for D.E. (log2): 500 nM, treated vs untreated HT29 cells
From the text: Incyte clones represent template sequences derived from the LIFESEQ GOLD assembled human sequence database (Incyte Genomics). In cases where more than one clone was available for a particular template, the 5′-most clone in the template was used on the microarray. The HUMAN GENOME GEM series 1-4 microarrays (Incyte Genomics) contain 37,715 array elements which represent 12,989 annotated clusters and 24,726 unannotated clusters.
To construct microarrays, cDNAs were amplified from bacterial cells using primers complementary to vector sequences flanking the cDNA insert. Thirty cycles of PCR increased the initial quantity of cDNAs from 1-2 ng to a final quantity greater than 5 μg. Amplified cDNAs were then purified using SEPHACRYL-400 columns (APB). Purified cDNAs were immobilized on polymer-coated glass slides. Glass microscope slides (Corning, Corning N.Y.) were cleaned by ultrasound in 0.1% SDS and acetone, with extensive distilled water washes between and after treatments. Glass slides were etched in 4% hydrofluoric acid (VWR Scientific Products, West Chester Pa.), washed thoroughly in distilled water, and coated with 0.05% aminopropyl silane (Sigma Aldrich) in 95% ethanol. Coated slides were cured in a 110° C. oven. cDNAs were applied to the coated glass substrate using a procedure described in U.S. Pat. No. 5,807,522. One microliter of the cDNA at an average concentration of 100 ng/μl was loaded into the open capillary printing element by a high-speed robotic apparatus which then deposited about 5 nl of cDNA per slide.
Microarrays were UV-crosslinked using a STRATALINKER UV-crosslinker (Stratagene), and then washed at room temperature once in 0.2% SDS and three times in distilled water. Non-specific binding sites were blocked by incubation of microarrays in 0.2% casein in phosphate buffered saline (Tropix, Bedford Mass.) for 30 minutes at 60° C. followed by washes in 0.2% SDS and distilled water as before.
HT29 cells were derived from a Grade II adenocarcinoma of the colon obtained from a person. HT29 adenocarcinoma cells (American Type Culture Collection, Manassas Va.) were cultured in McCoy's medium supplemented with 10% fetal bovine serum (Invitrogen) at 37° C. and 5% CO2. Treated cells were exposed to 500 nM 5-aza-2-deoxycytidine (Sigma-Aldrich) 24 hr after passage in complete culture medium. Control cultures were treated in parallel with phosphate buffered saline vehicle. After twenty-four hours, culture medium was replaced with drug-free medium. Control and 5-aza-2-deoxycytidine-treated cells were subcultured at equal densities at 1 and 5 days after the initial treatment, and proliferation was measured at the subsequent time point using a Coulter counter (Beckman Coulter, Fullerton Calif.). Cells were harvested 9 days after the initial treatment.
Cells were harvested and lysed in 1 ml of TRIZOL reagent (5×10^6 cells/ml; Invitrogen). The lysates were vortexed thoroughly and incubated at room temperature for 2-3 minutes and extracted with 0.5 ml chloroform. The extract was mixed, incubated at room temperature for 5 minutes, and centrifuged at 16,000×g for 15 minutes at 4° C. The aqueous layer was collected and an equal volume of isopropanol was added. Samples were mixed, incubated at room temperature for 10 minutes, and centrifuged at 16,000×g for 20 minutes at 4° C. The supernatant was removed and the RNA pellet was washed with 1 ml of 70% ethanol, centrifuged at 16,000×g at 4° C., and resuspended in RNAse-free water. The concentration of the RNA was determined by measuring the optical density at 260 nm.
Poly(A) RNA was prepared using an OLIGOTEX mRNA kit (Qiagen) with the following modifications: OLIGOTEX beads were washed in tubes instead of on spin columns, resuspended in elution buffer, and then loaded onto spin columns to recover mRNA. To obtain maximum yield, the mRNA was eluted twice. […]

HT-29 cells [2] = conditions: cultured HT-29 cells, colorectal cancer cell line; cited from earlier work
HT-29 cells [3] = conditions: inhibition parallels induction of IFN responsive genes; cited from earlier work
polyp formation = conditions: in combination with a genetic reduction in DNA methyltransferase I activity; cited from earlier work
[4] = treated HT29 cells versus untreated cells

Nc1ncn([C@H]2C[C@H](O)[C@@H](CO)O2)c(=O)n1 [5-aza-2-deoxycytidine]
D.E. (log2) ([1]; SEQ ID NO 1, GAGE-8 [Homo sapiens], harvested 9 days after treatment): 3.45 log2 | D.E. (log2) ([1]; SEQ ID NO 2, GAGE-7B [Homo sapiens]): 2.51 log2 | D.E. (log2) ([1]; SEQ ID NO 3, p27 [Homo sapiens]): 2.08 log2 | D.E. (log2) ([1]; SEQ ID NO 4, MAGE-6 antigen [Homo sapiens]): 1.74 log2 | D.E. (log2) ([1]; SEQ ID NO 5, interferon-inducible protein [Homo sapiens]): 1.62 log2 | D.E. (log2) ([1]; SEQ ID NO 6, MAGE-9 antigen [Homo sapiens]): 1.57 log2 | D.E. (log2) ([1]; SEQ ID NO 7, interferon-inducible peptide precursor [Homo sapiens]): 1.56 log2 | D.E. (log2) ([1]; SEQ ID NO 8, transcription factor ISGF-3 [Homo sapiens]): 1.49 log2 | D.E. (log2) ([1]; SEQ ID NO 9, HLA Class I region, chromosome 6p21.3, section 6/20 [Homo sapiens]): 1.40 log2 | D.E. (log2) ([1]; SEQ ID NO 10, hypothetical protein [Homo sapiens]): 1.33 log2 | D.E. (log2) ([1]; SEQ ID NO 11, GAGE-8 protein [Homo sapiens]): 2.67 log2 | D.E. (log2) ([1]; SEQ ID NO 12, putative tumor antigen [Homo sapiens]): 2.57 log2 | D.E. (log2) ([1]; SEQ ID NO 13, semaphorin B [Mus musculus]): 1.92 log2 | D.E. (log2) ([1]; SEQ ID NO 14, Incyte Unique, Template 213413.1): 2.10 log2 | D.E. (log2) ([1]; SEQ ID NO 15, Incyte Unique, Template 032481.1): 1.76 log2 | D.E. (log2) ([1]; SEQ ID NO 16, HLA Class I region, chromosome 6p21.3 [Homo sapiens]): 1.67 log2 | D.E. (log2) ([1]; SEQ ID NO 17, proline rich synapse associated protein 1 [Rattus norvegicus]): 1.66 log2 | D.E. (log2) ([1]; SEQ ID NO 18, hepatitis C-associated microtubular aggregate protein p44 [Homo sapiens]): 1.53 log2 | D.E. (log2) ([1]; SEQ ID NO 19, S100P calcium-binding protein [Homo sapiens], negative = downregulation): −1.34 log2 | D.E. (log2) ([1]; SEQ ID NO 20, G0S2 protein [Homo sapiens], negative = downregulation): −1.41 log2 | D.E. (log2) ([1]; SEQ ID NO 21, progesterone-induced protein [Oryctolagus cuniculus], negative = downregulation): −1.42 log2 | D.E. (log2) ([1]; SEQ ID NO 22, phosphoenolpyruvate carboxykinase [Homo sapiens], negative = downregulation): −1.72 log2 | D.E. (log2) ([1]; SEQ ID NO 23, unnamed protein product [Homo sapiens], negative = downregulation): −1.74 log2 | D.E. (log2) ([1]; SEQ ID NO 24, cystine/glutamate transporter [Homo sapiens], negative = downregulation): −1.81 log2 | D.E. (log2) ([1]; SEQ ID NO 25, Incyte Unique, Template 200578.1, negative = downregulation): −1.63 log2 | differential expression values of each cDNA (SEQ ID NOs: 1-25) ([1]; treated HT29 cells relative to untreated HT29 cells, up- or downregulation): greater than 2.5 fold | upregulation of SEQ ID NO: 1 [1, 4]: > 5 fold | upregulation of SEQ ID NO: 2 [1, 4]: > 5 fold | upregulation of SEQ ID NO: 4 [1, 4]: > 3 fold | upregulation of SEQ ID NO: 6 [1, 4]: > 3 fold | upregulation of SEQ ID NO: 11 [1, 4]: > 5 fold | upregulation of SEQ ID NO: 12 [1, 4]: > 5 fold | gene expression after treatment (HT-29 cells [2]): specific expression of several genes related to interferon (IFN) signaling | growth of HT-29 cells in culture (HT-29 cells [3]): inhibits growth | polyp formation (polyp formation): reduced polyp formation
